Patent publication US20250250303A1 (THE TRUSTEES OF COLUMBIA UNIVERSITY IN THE CITY OF NEW YORK, priority 2022, published 2025)
Entries after “also recorded” stand apart in the source; their conditions may differ. Bridge positions count the residues as written; N and C are the ends. Peptide text beside a SMILES is read from it.

Assays:
IR R14A = target: T1, IR R14A (Homo sapiens, UniProt P06213, R41A); test: IR activation assay in 293 FT cells, IR R14A mutant; type: cell-based; details: 10 min
T1 construct: expressed in transfected cells; host or cells: 293 FT cells

IR D707A [1] = target: T2, IR D707A (Homo sapiens, UniProt P06213, D734A); test: IR signaling in IR-D707A MEFs (tamoxifen-inducible IR knockout); type: cell-based, mouse; set-up: expressed in transfected cells; host or cells: mouse embryonic fibroblasts from IR F/F; CRE-ERT mice, retroviral pBabe-puro, tamoxifen-treated; details: wide range of concentrations
Procedure: Fresh 0.25% trypsin-EDTA was added. […] The medium was changed the next day to remove debris and floating cells.

IR signaling = test: Insulin signaling in vivo (liver, skeletal muscle, WAT lysates, western blot); set-up: species or system mice
Procedure: 2-3 months old male mice were fasted overnight. […] Livers were removed at 3 min after injection. White adipose tissue and skeletal muscles were removed at 5 min and 7 min after injection, respectively. Tissues were mixed with the lysis buffer B supplemented with complete Protease Inhibitor Cocktail (Roche), PhosSTOP (Sigma), and 25 U/ml turbo nuclease (Accelagen), homogenized with FisherbrandTM Bead Mill homogenizer, and then incubated on ice for 1 hr. After centrifuge at 20,817 g at 4° C. for 30 min, the concentrations of cell lysate were measured using Micro BCA Protein Assay Kit (Thermo Scientific). The lysates were then analyzed by quantitative western blotting.

IR E697A = target: T3, IR E697A (Homo sapiens, UniProt P06213, E724A); test: IR activation assay in 293 FT cells, IR E697A mutant; type: cell-based; details: 10 nM for 10 min
T3 construct: expressed in transfected cells; host or cells: 293 FT cells

IR N15K = target: T4, IR N15K (Homo sapiens, UniProt P06213, N42K); test: IR activation assay in 293 FT cells, IR N15K mutant; type: cell-based; details: 10 min
T4 construct: expressed in transfected cells; host or cells: 293 FT cells

CAL33 = test: Cancer cell proliferation, CAL33; type: cell-based
[2] = test system: 3T3-L1 and IR-transfected L6 myoblasts; details: cited from earlier work
IR D496K = target: T5, IR D496K (Homo sapiens, UniProt P06213, D523K); test: IR activation assay in 293 FT cells, IR D496K mutant; type: cell-based; details: 10 min
T5 construct: expressed in transfected cells; host or cells: 293 FT cells

T47D = test: Cancer cell proliferation, T47D; type: cell-based
IR F497A = target: T6, IR F497A (Homo sapiens, UniProt P06213, F524A); test: IR activation assay in 293 FT cells, IR F497A mutant; type: cell-based; details: 10 min
T6 construct: expressed in transfected cells; host or cells: 293 FT cells

IR F701A/F705A = target: T7, IR F701A/F705A (Homo sapiens, UniProt P06213, F728A/F732A); test: IR activation assay in 293 FT cells, IR F701A/F705A mutant; type: cell-based; details: 10 min
T7 construct: expressed in transfected cells; host or cells: 293 FT cells

IR D707A [3] = target: T2, IR D707A; test: IR activation assay in 293 FT cells, IR D707A mutant; type: cell-based; set-up: expressed in transfected cells; host or cells: 293 FT cells; details: 10 min
C2C12 cells = test: MTT assay in C2C12 cells; type: cell-based
Procedure: To examine the function of […] on cell viability and growth, an MTT assay was performed in C2C12 cells.

[4] = WAT, compared to vehicle treated conditions
[5] = liver, injection via inferior vena cava
[6] = skeletal muscle, injection via inferior vena cava

T2 sequence (P06213 28-1370 isoform P06213-2 D734A limits assumed): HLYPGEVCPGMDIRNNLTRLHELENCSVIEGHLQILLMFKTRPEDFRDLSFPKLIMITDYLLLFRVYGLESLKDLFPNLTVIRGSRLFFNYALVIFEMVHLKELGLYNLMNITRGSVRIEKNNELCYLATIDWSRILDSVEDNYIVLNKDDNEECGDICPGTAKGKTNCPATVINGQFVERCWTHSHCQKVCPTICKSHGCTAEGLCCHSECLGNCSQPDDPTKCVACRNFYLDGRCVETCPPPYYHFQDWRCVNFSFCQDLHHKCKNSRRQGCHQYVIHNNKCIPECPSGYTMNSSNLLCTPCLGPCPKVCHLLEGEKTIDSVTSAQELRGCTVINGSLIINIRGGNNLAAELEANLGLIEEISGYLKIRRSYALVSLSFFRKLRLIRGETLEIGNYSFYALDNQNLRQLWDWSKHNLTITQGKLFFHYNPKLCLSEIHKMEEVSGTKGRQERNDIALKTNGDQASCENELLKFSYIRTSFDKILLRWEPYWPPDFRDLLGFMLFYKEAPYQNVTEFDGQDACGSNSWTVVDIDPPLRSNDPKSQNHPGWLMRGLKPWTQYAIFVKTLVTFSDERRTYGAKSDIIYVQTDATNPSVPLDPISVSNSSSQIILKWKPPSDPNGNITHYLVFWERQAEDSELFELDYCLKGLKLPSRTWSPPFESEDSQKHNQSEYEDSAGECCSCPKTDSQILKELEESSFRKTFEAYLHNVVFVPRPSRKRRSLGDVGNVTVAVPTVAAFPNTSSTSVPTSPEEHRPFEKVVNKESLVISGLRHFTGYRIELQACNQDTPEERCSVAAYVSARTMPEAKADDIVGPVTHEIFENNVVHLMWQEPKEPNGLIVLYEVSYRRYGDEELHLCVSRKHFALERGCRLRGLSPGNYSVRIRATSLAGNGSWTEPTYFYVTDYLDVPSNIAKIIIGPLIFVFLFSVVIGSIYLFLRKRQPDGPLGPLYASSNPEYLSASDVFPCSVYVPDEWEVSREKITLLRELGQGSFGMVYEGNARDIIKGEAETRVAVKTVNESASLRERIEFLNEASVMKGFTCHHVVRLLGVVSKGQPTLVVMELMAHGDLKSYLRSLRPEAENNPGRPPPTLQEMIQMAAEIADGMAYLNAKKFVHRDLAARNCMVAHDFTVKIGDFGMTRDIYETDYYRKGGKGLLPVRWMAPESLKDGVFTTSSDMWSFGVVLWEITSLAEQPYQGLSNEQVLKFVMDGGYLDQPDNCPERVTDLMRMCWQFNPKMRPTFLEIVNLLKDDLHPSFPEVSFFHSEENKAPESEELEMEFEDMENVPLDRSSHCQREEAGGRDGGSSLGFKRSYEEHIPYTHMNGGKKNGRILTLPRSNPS
T2 sequence (P06213 763-1382 partner limits assumed): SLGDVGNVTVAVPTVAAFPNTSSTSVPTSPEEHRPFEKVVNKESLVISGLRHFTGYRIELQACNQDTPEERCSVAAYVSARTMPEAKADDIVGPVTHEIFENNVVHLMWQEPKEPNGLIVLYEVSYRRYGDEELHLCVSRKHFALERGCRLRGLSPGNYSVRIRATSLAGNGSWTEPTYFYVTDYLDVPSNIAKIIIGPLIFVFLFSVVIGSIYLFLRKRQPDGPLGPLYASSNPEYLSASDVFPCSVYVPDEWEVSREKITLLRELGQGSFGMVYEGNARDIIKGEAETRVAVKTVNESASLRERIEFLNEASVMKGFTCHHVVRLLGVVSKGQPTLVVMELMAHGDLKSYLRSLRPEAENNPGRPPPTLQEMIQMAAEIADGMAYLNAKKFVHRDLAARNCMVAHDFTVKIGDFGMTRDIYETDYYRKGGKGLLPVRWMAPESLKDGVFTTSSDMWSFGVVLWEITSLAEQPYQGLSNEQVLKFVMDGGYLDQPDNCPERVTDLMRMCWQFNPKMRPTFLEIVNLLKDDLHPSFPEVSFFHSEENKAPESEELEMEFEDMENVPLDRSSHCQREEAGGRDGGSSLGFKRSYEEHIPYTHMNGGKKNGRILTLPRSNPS
T6 sequence (P06213 28-1370 isoform P06213-2 F524A limits assumed): as the sequence (P06213 28-1370 isoform P06213-2 D734A limits assumed) above, with F497A, A707D counted along it
T6 sequence (P06213 763-1382 partner limits assumed): as the sequence (P06213 763-1382 partner limits assumed) above
T4 sequence (P06213 28-1370 isoform P06213-2 N42K limits assumed): as the sequence (P06213 28-1370 isoform P06213-2 D734A limits assumed) above, with N15K, A707D counted along it
T4 sequence (P06213 763-1382 partner limits assumed): as the sequence (P06213 763-1382 partner limits assumed) above
T5 sequence (P06213 28-1370 isoform P06213-2 D523K limits assumed): as the sequence (P06213 28-1370 isoform P06213-2 D734A limits assumed) above, with D496K, A707D counted along it
T5 sequence (P06213 763-1382 partner limits assumed): as the sequence (P06213 763-1382 partner limits assumed) above
T7 sequence (P06213 28-1370 isoform P06213-2 F728A/F732A limits assumed): as the sequence (P06213 28-1370 isoform P06213-2 D734A limits assumed) above, with F701A, F705A, A707D counted along it
T7 sequence (P06213 763-1382 partner limits assumed): as the sequence (P06213 763-1382 partner limits assumed) above
T1 sequence (P06213 28-1370 isoform P06213-2 R41A limits assumed): as the sequence (P06213 28-1370 isoform P06213-2 D734A limits assumed) above, with R14A, A707D counted along it
T1 sequence (P06213 763-1382 partner limits assumed): as the sequence (P06213 763-1382 partner limits assumed) above
T3 sequence (P06213 28-1370 isoform P06213-2 E724A limits assumed): as the sequence (P06213 28-1370 isoform P06213-2 D734A limits assumed) above, with E697A, A707D counted along it
T3 sequence (P06213 763-1382 partner limits assumed): as the sequence (P06213 763-1382 partner limits assumed) above

With `CC[C@H](C)[C@H](NC(=O)[C@H](CCC(N)=O)NC(=O)[C@H](C)NC(=O)[C@H](Cc1c[nH]c2ccccc12)NC(=O)[C@H](CCC(=O)O)NC(=O)[C@H](CCC(=O)O)NC(=O)[C@H](CCC(=O)O)NC(=O)[C@H](CC(C)C)NC(=O)[C@H](CO)NC(C)=O)C(=O)N[C@@H](CCC(=O)O)C(=O)N[C@H]1CSSC[C@@H](C(=O)N2CCC[C@H]2C(=O)N[C@@H](CO)C(=O)N[C@@H](CCC(=O)O)C(=O)N[C@@H](CO)C(=O)N[C@@H](Cc2ccccc2)C(=O)N[C@@H](Cc2ccc(O)cc2)C(=O)N[C@@H](CC(=O)O)C(=O)N[C@@H](Cc2c[nH]c3ccccc23)C(=O)N[C@@H](Cc2ccccc2)C(=O)N[C@@H](CCC(=O)O)C(=O)N[C@@H](CCCNC(=N)N)C(=O)N[C@@H](CCC(N)=O)C(=O)N[C@@H](CC(C)C)C(N)=O)NC(=O)CNC(=O)[C@H](CCCNC(=N)N)NC(=O)CNC(=O)[C@H](Cc2ccc(O)cc2)NC(=O)[C@H](C(C)C)NC(=O)[C@H](CCC(=O)O)NC1=O` [S597] (Ac-SLEEEWAQIECEVYGRGCPSESFYDWFERQL-NH2; disulfide 11-18) the “IR activation (pY IR)” value (IR R14A) was “fully activated”, the “phosphorylation of AKT (pAKT)” value (IR D707A [1]) was “significantly increased” and the “phosphorylation of ERK (pERK)” value (IR D707A [1]) was “significantly increased”. For the same compound, the “phosphorylation of IR (pY IR)” value (IR D707A [1]) was “significantly increased”, the pAKT level (IR signaling; [4]) was “significantly increased” and the pERK level (IR signaling; [4]) was “neither insulin nor S597 had a statistically significant effect”. For the same compound, the “pY IR level” value (IR signaling; WAT, injection via inferior vena cava) was “robust auto-phosphorylation of the IR, albeit with lower potency than insulin”, the pERK level (IR signaling; [5]) was “increased” and the “pY IR level” value (IR signaling; [5]) was “robust auto-phosphorylation of the IR, albeit with lower potency than insulin”. The pAKT level (IR signaling; [6]) was “significantly increased”, the pERK level (IR signaling; [6]) was “less potent; also recorded: not in the skeletal muscle” and the “pY IR level” value (IR signaling; [6]) was “significantly increased”. The “IR activation (pY IR)” value (IR E697A) was “fully activated”, the “IR activation (pY IR)” value (IR N15K) was “fully activated” and the cell proliferation (CAL33) was “did not promote”. For the same compound, the MAPK pathway [2] was “largely inactive”, the PI3K-AKT pathway [2] was “selectively activates” and the “IR activation (pY IR)” value (IR D496K) was “fully activated”. The cell proliferation (T47D) was “did not promote”, the “IR activation (pY IR)” value (IR F497A) was “fully activated” and the “IR activation (pY IR)” value (IR F701A/F705A) was “fully activated”. The “IR activation (pY IR)” value (IR D707A [3]) was “fully activated” and the “cell viability and growth” value (C2C12 cells) was “does not promote cell proliferation as efficiently as insulin”.
